The source of these data is patent publication US4342752A, “Carbalkoxymethyl derivatives of rutin poly(H-)sulfate and method of use” (American Cyanamid Company, priority 1981, dated 1982).

The target of assay [1] is T1, activated human C1 (Homo sapiens, UniProt P09871).
T1 sequence (P09871 438-688 limits assumed): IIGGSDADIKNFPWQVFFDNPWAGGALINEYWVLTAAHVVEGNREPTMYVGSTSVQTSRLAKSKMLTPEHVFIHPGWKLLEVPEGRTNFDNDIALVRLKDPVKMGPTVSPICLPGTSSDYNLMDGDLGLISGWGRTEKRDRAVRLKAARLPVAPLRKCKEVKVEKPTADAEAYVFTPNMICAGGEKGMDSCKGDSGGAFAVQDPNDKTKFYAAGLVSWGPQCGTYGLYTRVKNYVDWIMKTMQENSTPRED
T1 sequence (P09871 16-437 limits assumed): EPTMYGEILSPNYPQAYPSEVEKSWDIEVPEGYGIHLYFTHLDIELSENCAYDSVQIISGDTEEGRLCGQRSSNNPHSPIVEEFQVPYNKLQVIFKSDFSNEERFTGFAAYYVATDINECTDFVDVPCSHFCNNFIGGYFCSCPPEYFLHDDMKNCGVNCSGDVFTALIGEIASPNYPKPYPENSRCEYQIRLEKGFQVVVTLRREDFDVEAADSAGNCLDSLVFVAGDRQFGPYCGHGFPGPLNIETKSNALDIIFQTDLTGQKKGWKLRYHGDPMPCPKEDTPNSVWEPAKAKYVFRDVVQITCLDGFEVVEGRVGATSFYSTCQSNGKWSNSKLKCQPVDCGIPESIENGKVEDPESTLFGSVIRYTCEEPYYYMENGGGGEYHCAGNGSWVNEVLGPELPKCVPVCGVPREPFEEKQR
The experiment in a line: Test Code 026 (C1 inhibitor). The conditions noted are these: twofold serial dilutions; higher well number indicates higher activity. It is filed as biochemical. As to the method: (§1) An active inhibitor protects C2 from C1 and C4; (ii) Cap 50 Test--Here, appropriate amounts of the test compound are added to a pool of guinea pig serum in vitro, after which the undiluted serum capillary tube assay referred to above is run. The concentration of compound inhibiting 50% is reported; and (iii) Guinea Pig Intraperitoneal Test (GPIP)--Guinea pigs weighing about 300 g. are dosed intraperitoneally (i.p.) with 200 mg./kg. of the test compound dissolved in saline and adjusted to pH 7-8. Approximately 0.4 ml. blood samples, taken by orbital sinus puncture 30 minutes and one hour after injections, are collected directly into centrifuge tubes; 5 ml. blood samples, taken by decapitation 2 hours after injection are collected directly into beakers. The samples are allowed to clot, centrifuged, and the resultant sera are assayed for complement activity using the capillary complement assay. Percent inhibition are calculated by comparison with simultaneous controls.

For assay [2], the system named is complement activity of sera. The experiment in a line: Guinea Pig Intraperitoneal Test (GPIP). The following applies: Cavia porcellus, ip, 200 mg./kg. i.p., read-out: In Vivo Activity (Guinea Pig) Intraperitoneal % Inhibition. Here is the method:
as §1, with “[…],” for “taken by orbital sinus puncture 30 minutes and one hour after injections,”, “taken by decapitation 2 hours after injection are collected directly into” left out

Several values for one entry are separate records, joined by “and”; a condition that tells them apart may be missing. Equal entries are not always repeated. Structures can show the parent of a compound that is named as a salt. Where two headings read alike, the source gives them in different places.

A word on the inhibition: it is the drop in the measured response relative to a control, in per cent. `CCOC(=O)COc1cc(OS(=O)(=O)O)c2c(=O)c(O[C@@H]3O[C@H](CO[C@@H]4O[C@@H](C)[C@H](OS(=O)(=O)O)[C@@H](OS(=O)(=O)O)[C@H]4OS(=O)(=O)O)[C@@H](OS(=O)(=O)O)[C@H](OS(=O)(=O)O)[C@H]3OS(=O)(=O)O)c(-c3ccc(OS(=O)(=O)O)c(OS(=O)(=O)O)c3)oc2c1` [7-O-Carbethoxymethyl-rutin nona(H-sulfate)sodium salt]: the “In vitro Activity 026 (activity in wells, serial dilution assay)” value in assay [1] was 12 wells and 10 wells. Moreover, the inhibition at 200 mg/kg in assay [2] (Time 2 hours) worked out at 39%; in assay [2] (Time 6 hours), 43%; in assay [2] (Time 24 hours), 55%.
